Data set [1] in a line: Model of passage through the intestinal barrier constituted of Caco-2 cells. Conditions: human, concentration=20 μM, apical pH=6.5 and basal pH=7.4, read-out: Ptot, coefficient of apparent permeability for the monolayer of intestinal epithelial cells plus filter. The class given is in vitro ADME. The text has this: The compounds according to the invention were investigated on a model of passage through the intestinal barrier constituted of Caco-2 cells. (M. C. Grès, Pharm. Res., 1998, 15(5), 726-733). This model makes it possible to define the coefficient Ptot of apparent permeability of the product for the monolayer of intestinal epithelial cells plus filter. As examples, compounds No. 60 (ex. 5) and No. 90 (ex. 7) have, in this model, a Ptot of 111.97 and 64.5 respectively (10^−7 cm·s^−1; concentration=20 μM; apical pH=6.5 and basal pH=7.4). These values are predictive of total absorption in humans, after administration by the oral route.
On the technique in general: Caco-2 cells form a polarised layer with tight junctions and transporters.

Molecules are shown by their SMILES.

As for `CC(C)(C)C(=O)NCc1cc(-c2ccc(Cl)c(Cl)c2)n(Cc2ccc(Cl)c(Cl)c2)n1` [Compound 60, N-((1-(3,4-Dichlorobenzyl)-5-(3,4-dichlorophenyl)-1H-pyrazol-3-yl)methyl)-2,2-dimethylpropanamide], the Papp at 20 μM in data set [1] is 11.2 ×10⁻⁶ cm/s.

`Cc1ccc(Cn2nc(CNC(=O)NC(C)(C)C)cc2-c2ccc(Cl)c(Cl)c2)cc1Cl` [Compound 81, N-(tert-Butyl)-N′-((1-(3-chloro-4-methylbenzyl)-5-(3,4-dichlorophenyl)-1H-pyrazol-3-yl)methyl)urea] came in with a melting point of 181 °C.

Compound `CC(C)(C)S(=O)(=O)NCc1cc(-c2ccc(Cl)c(Cl)c2)n(Cc2ccc(Cl)c(Cl)c2)n1` [Compound 90, N-((1-(3,4-Dichlorobenzyl)-5-(3,4-dichlorophenyl)-1H-pyrazol-3-yl)methyl)-2-methylpropane-2-sulfonamide] came in with a melting point of 127 °C. In data set [1], the Papp at 20 μM was 6.45 ×10⁻⁶ cm/s.

What is called melting point is the temperature of the solid-liquid transition.

The values above are taken from patent publication US20100144818A1, “1-BENZYLPYRAZOLE DERIVATIVES, PREPARATION THEREOF AND THERAPEUTIC USE THEREOF” (SANOFI-AVENTIS, priority 2007, published 2010).
